The values that follow come from patent publication US20220227729A1, “IDENTIFICATION AND USE OF KRAS INHIBITORS” (Bayer Aktiengesellschaft, priority 2019, published 2022).

One assay addresses KRAS^G12C (Homo sapiens, UniProt P01116, G12C). The experiment in a line: KRAS G12C activation by SOS1cat assay (On-assay), HTRF. To be noted: SOS1cat mediated loading of GST-KRAS G12C-GDP with fluorescent GTP analogue; 180 min preincubation; 20° C.; read-out: IC50 value biochemical KRAS^G12C activation assay. As to the method:
(§1) Preparation of test compound dilutions. A 100-fold concentrated solution of the test compound (50 nL) in DMSO was transferred to microtiter test plates (384 or 1,536 wells, Greiner Bio-One, Germany) using either a Hummingbird liquid handler (Digilab, MA, USA) or an Echo acoustic system (Labcyte, CA, USA). Plates were sealed with adhesive foil or heat-sealed and stored at −20° C. until use. Serial dilutions of test compounds were prepared in 100% DMSO using a Precision Pipetting System (BioTek, USA).
(§2) Measurement and evaluation of inhibition data, calculation of IC50 values. Homogeneous time-resolved fluorescence (HTRF) was measured with a PHERAstar reader (BMG, Germany) using the HTRF module (excitation: 337 nm; emission 1: 620 nm, emission 2: 665 nm). The ratio of the emissions at 665 and 620 nm was used as the specific signal for further evaluation. The data were normalized using the controls: DMSO=0% inhibition, inhibition control wells with inhibitor control solution=100% inhibition. Compounds were tested in duplicates at up to 11 concentrations (e.g. 20 μM, 5.7 μM, 1.6 μM, 0.47 μM, 0.13 μM, 38 nM, 11 nM, 3.1 nM, 0.89 nM, 0.25 nM and 0.073 nM). IC50 values were calculated using a four-parameter fit, with a commercial software package (Genedata Screener, Switzerland).
(§3) KRAS^G12C activation by SOS1^cat assay (“On-assay”). This assay quantifies SOS1^cat mediated loading of KRAS^G12C-GDP with a fluorescent GTP analogue. Detection of successful loading was achieved by measuring resonance energy transfer from anti-GST-terbium (FRET donor) bound to GST-KRAS^G12c to the loaded fluorescent GTP analogue (FRET acceptor). The fluorescent GTP analogue EDA-GTP-DY-647P1 [2′/3′-O-(2-aminoethyl-carbamoyl)guanosine-5′-triphosphate labelled with DY-647P1 (Dyomics GmbH, Germany)] was synthesized by Jena Bioscience (Germany) and supplied as a 1 mM aqueous solution. A KRAS^G12C working solution was prepared in assay buffer [10 mM HEPES pH 7.4 (AppliChem), 150 mM NaCl (Sigma), 5 mM MgCl2 (Sigma), 1 mM DTT (Thermo Fisher), 0.05% BSA Fraction V pH 7.0 (ICN Biomedicals), 0.0025% (v/v) Igepal (Sigma)] containing 100 nM GST-KRAS^G12C and 2 nM anti-GST-terbium (Cisbio, France). A SOS1^cat working solution was prepared in assay buffer containing 20 nM SOS1^cat and 200 nM EDA-GTP-DY-647P1. An inhibitor control solution was prepared in assay buffer containing 200 nM EDA-GTP-DY-647P1 without SOS1^cat. All steps of the assay were performed at 20° C. A volume of 2.5 μL of the KRAS^G12C working solution was added to all wells of the test plate using a Multidrop dispenser (Thermo LabSystems). After 180 min, 2.5 μL of the SOS1^cat working solution was added to all wells, except for the inhibitor control solution wells. After 30 min incubation, HTRF was measured.
On the technique in general: TR-FRET usually uses a lanthanide donor and a delayed reading to cut background.

The target of a further assay is KRAS^WT (Homo sapiens, UniProt P01116). The experiment in a line: Wild-type KRAS activation by SOS1cat assay, HTRF. As to conditions: SOS1cat mediated loading of GST-KRAS WT-GDP with fluorescent GTP analogue; 50 nM GST-KRAS WT; read-out: IC50 value biochemical KRAS^wt activation assay. How it is done:
as §1, §2, §3
Wild-type KRAS activation by SOS1^cat assay. This assay quantifies human SOS1^cat mediated loading of wild-type GST-KRAS^WT-GDP with a fluorescent GTP analogue. The assay was performed similar to the KRAS^G12C activation by SOS1^cat assay. GST-KRAS^G12C was replaced by GST-KRAS^WT, which was used at 50 nM final concentration.

In assay [1] the target is recombinant kRas mutant (G12C; C51S; C80L; C118S) (Homo sapiens, UniProt P01116, C118S/C51S/C80L/G12C). The experiment in a line: Covalent binding assay, intact mass LC-MS. As to conditions: 25 μM protein, 25 μM compound, room temperature, 2 h. How it is done:
The percentage of covalent adduct formation at KRas G12C was determined by intact mass determination. To this end 25 μM recombinant kRas mutant (G12C; C51S; C80L; C118S) (storage buffer: 50 mM Tris, pH=8; 50 mM NaCl) were incubated with 25 μM of compound (1% v/v final DMSO concentration) at room temperature for 2 h. For LC-MS analysis the reaction was acidified by adding 4 μL of 4% v/v TFA to 20 μL reaction volume.
Liquid chromatography-mass spectrometry (LC-MS) analysis was performed using a Waters SYNAPT G2-S quadrupole time-of-flight mass spectrometer connected to a Waters nanoAcquity UPLC system. Samples were loaded on a 2.1×5 mm mass prep C4 guard column (Waters) and desalted with a short gradient (3 min.) of increasing concentrations of acetonitrile at a flow rate of 100 μL/min. Spectra were analyzed by using MassLynx v4.1 software and deconvoluted with the MaxEnt1 algorithm.
Percent conversion was determined by the ratio of signal intensities of apo-kRas and kRas+inhibitor.

A word on the IC50: it is the point on the concentration scale where inhibition reaches its midpoint.

Turning to `C=CC(=O)N1CCC(c2nc3ccc(-c4sc(C)nc4C)cc3c(=O)[nH]2)C1` (stereo not drawn) [Example 19, 6-(2,4-dimethyl-1,3-thiazol-5-yl)-2[1-(prop-2-enoyl)pyrrolidin-3-yl]quinazolin-4(3H)-one], the half-maximal inhibitory concentration (IC50) at KRAS^G12C and on KRAS^WT was > 20 µM each time. For the same compound, the “Covalent Binding Assay (% binding)” value in assay [1] is recorded as 4%.
For `C=CC(=O)N1CCC(c2cc3ccc(-c4ccc(F)c(F)c4F)cc3c(=O)[nH]2)C1` (stereo not drawn) [Example 7, 3-[1-(Prop-2-enoyl)pyrrolidin-3-yl]-7-(2,3,4-trifluorophenyl)isoquinolin-1(2H)-one], the results for the 50% inhibitory concentration (IC50) at KRAS^G12C and on KRAS^WT were > 7 µM and > 20 µM, respectively. For the same compound, the “Covalent Binding Assay (% binding)” value in assay [1] is 31%.
As for `C=CC(=O)N1CCC(c2nc3cc(Cl)c(-c4cccc5ncccc45)cc3c(=O)[nH]2)C1` (stereo not drawn) [Example 26, 7-chloro-2-[1-(prop-2-enoyl)pyrrolidin-3-yl]-6-(quinolin-5-yl)quinazolin-4(3H)-one], the concentration for half-maximal inhibition (IC50) at KRAS^G12C is > 19 µM; on KRAS^WT, > 20 µM. In assay [1], the “Covalent Binding Assay (% binding)” value was determined as 41%.
On to `C=CC(=O)N1CCC(c2nc3cc(Cl)c(-c4c(F)cccc4OC)cc3c(=O)[nH]2)C1` (stereo not drawn) [Example 21, 7-Chloro-6-(2-fluoro-6-methoxyphenyl)-2-[1-(prop-2-enoyl)pyrrolidin-3-yl]quinazolin-4(3H)-one], for which the 50% inhibitory concentration (IC50) at KRAS^G12C and on KRAS^WT was > 20 µM in each case. The “Covalent Binding Assay (% binding)” value in assay [1] worked out at 26%.
